Structures are written as SMILES. pIC50: −log10 of the molar value.

The test deals with T1, Human FAAH (Homo sapiens, UniProt O00519).
T1 construct: The full length FAAH was subcloned into the mammalian expression vector, pcDEF.neo; expressed in transfected cells
T1 sequence (O00519 1-579): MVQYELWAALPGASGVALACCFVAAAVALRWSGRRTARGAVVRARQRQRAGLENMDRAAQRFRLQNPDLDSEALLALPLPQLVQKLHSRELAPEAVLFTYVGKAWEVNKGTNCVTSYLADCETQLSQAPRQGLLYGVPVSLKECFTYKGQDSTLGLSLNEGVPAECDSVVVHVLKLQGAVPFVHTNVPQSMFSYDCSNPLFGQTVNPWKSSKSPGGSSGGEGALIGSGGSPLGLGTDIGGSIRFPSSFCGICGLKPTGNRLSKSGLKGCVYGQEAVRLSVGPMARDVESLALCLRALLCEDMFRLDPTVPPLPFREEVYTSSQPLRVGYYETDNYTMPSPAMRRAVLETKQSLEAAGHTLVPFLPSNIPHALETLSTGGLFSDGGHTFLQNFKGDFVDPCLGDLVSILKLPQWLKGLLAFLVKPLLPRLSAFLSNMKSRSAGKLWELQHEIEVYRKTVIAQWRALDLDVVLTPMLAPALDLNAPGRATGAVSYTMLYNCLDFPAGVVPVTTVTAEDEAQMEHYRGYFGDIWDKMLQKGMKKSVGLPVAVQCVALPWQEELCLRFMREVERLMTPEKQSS
In words: Human FAAH lysate assay (CHO cell lysate, AAMCA fluorescent substrate). Format: biochemical. The following applies: FAAH inhibition, CHO cell lysate expressing human FAAH; read-out: Human Lysate. An excerpt:
To assist in assay development stable cell lines for human, murine and rat full length FAAH were developed. Human FAAH cDNA (Accession No: NM-001441.1) was purchased from Origene (Rockville, Md.). The full length FAAH was subcloned into the mammalian expression vector, pcDEF.neo, using XbaI and EcoRI restriction sites and used for stable cell line generation. CHO cells expressing FAAH were used to prepare either crude cell lysate or microsome fractions. To harvest cells, tissue culture media was decanted, the monolayer washed three times with Ca^++Mg^++ free PBS and cells recovered after 15 min in enzyme free dissociation media (Millipore Corp, Billerica, Mass.). Cells were collected by centrifuging at 2000 rpm for 15 min. and the cell pellet re-suspended with 50 mM HEPES (pH 7.4) containing 1 mM EDTA and the protease inhibitors aprotinin (1 mg/ml) and leupeptin (100 μM). […] The pellet containing FAAH-enriched microsomes was re-suspend in 50 mM HEPES, (pH 7,4) 1 mM EDTA, and any remaining DNA sheared by passage of material through a 23 gauge needle and aliquots of enzyme were store at -80° C. prior to use. […] (American Radiolabeled Chemicals; 1 mCi/ml) with FAAH (Life Sciences (1995), 56, 1999-2005 and Journal of Pharmacology and Experimented Therapeutics (1997), 283, 729-734), Analytical. Biochemistry (2003), 318, 270-5. […] Analytical. Biochemistry (2005). 343, 143-51 […] Fluorescent release as a measure of FAAH activity was monitored by reading the plate in a CytoFluor Multiplate Reader ([…]). Whole cell assay is conducted with cells harvested after rinsing tissue culture flasks three times with Ca^++Mg^++ free PBS, incubating for 10 min in Enzyme free dissociation media and centrifuging for 5 minutes at 1,000 rpm in table top centrifuge. Cells are resuspended in assay buffer at desired cell number in (4×10^4 cells/assay in 96-well format; 1×10^4 cells/assay in 384-well format) and assayed as described. […] The reaction was terminated by addition of 2 volumes of chloroform:methanol (1:1) and mixed by vortexing. […] K., et al. A fluorescence-based assay for fatty acid amide hydrolase compatible with high-throughput screening. Anal. Biochem. 343:143-51 (2005) • Wilson S. J., et l. A high-throughput-compatible assay for determining the activity of fatty acid amide hydrolase. Anal Biochem. 318:270-5 (2003).
Turning to `Cn1cnc(-c2ccc(C#N)cc2)c1Sc1ccc(Cl)cc1` [Ex 33, 4-{5-[(4-chlorophenyl)thio]-1-methyl-1H-imidazol-4-yl}benzonitrile], the pIC50 is 6.44.

Regarding `Cn1c(C2CCC2)nc(-c2ccc(S(C)(=O)=O)cc2)c1Sc1ccc(Cl)cc1` [Ex 14], the pIC50 is 7.58.

`CS(=O)(=O)c1ccc(-c2nc(C3CCC3)[nH]c2Sc2ccc(Cl)cc2)cc1` [Ex 13]: the pIC50 was 6.02.

Take `Cn1c(-c2ccccn2)nc(-c2ccc(-c3nnco3)cc2)c1Sc1ccc(Cl)cn1` [Ex 36, 5-Chloro-2-({1-methyl-4-[4-(1,3,4-oxadiazol-2-yl)phenyl]-2-pyridin-2-yl-1H-imidazol-5-yl}thio)pyridine]: the pIC50 was 7.57.

On to `Cn1c(-c2ccccn2)nc(-c2ccc(N)cc2)c1Sc1ccc(Cl)cc1` [Ex 98, 4-{5-[(4-Chlorophenyl)thio]-1-methyl-2-pyridin-2-yl-1H-imidazol-4-yl}aniline], for which the pIC50 is 7.47.

As for `Cn1c(-c2ccccc2)nc(-c2ccc(C#N)cc2)c1Sc1ccc(Cl)cc1` [Ex 2, 4-{5-[(4-Chlorophenyl)thio]-1-methyl-2-phenyl-1H-imidazol-4-yl}benzonitrile], the pIC50 is 7.67.

Regarding `CC(C)c1nc(-c2ccc(S(C)(=O)=O)cc2)c(Sc2ccc(Cl)cc2)n1C` [Ex 29, 5-[(4-Chlorophenyl)thio]-2-isopropyl-1-methyl-4-[4-(methylsulfonyl)phenyl]-1H-imidazole], the pIC50 was 7.13.

As for `Cn1c(-c2ccccn2)nc(-c2ccc(-n3ccnn3)cc2)c1Sc1ccc(Cl)cc1` [Ex 66], the pIC50 is 7.78.

`Cn1c(-c2ccccn2)nc(-c2ccc(C(O)C(F)F)cc2)c1Sc1ccc(Cl)cc1` (stereo not drawn) [Ex 57, 1-(4-{5-[(4-Chlorophenyl)thio]-1-methyl-2-pyridin-2-yl-1H-imidazol-4-yl}phenyl)-2,2-difluoroethanol]: the pIC50 is 7.67.
